The text below walks through data of patent US8507219B2, “Method of treating inflammation with statins” (MUSC Foundation for Research Development, priority 1997, dated 2013).

For one test, the system named is sterol synthesis. To be noted: Sinensky et al., 1991; read-out: IC50 for inhibition of sterol synthesis; cited from earlier work.
The subject of test [1] is NOS activity in rat resident macrophages. The experiment in a line: NOS activity (L-citrulline from L-arginine) in homogenates of treated rat resident macrophages. Type of test: cell-based. To be noted: for inhibition at 20000 µM: Rattus norvegicus, Macrophage. The procedure:
NOS activity was measured directly by production of L-[2,3,4,5-^3H]citrulline from L-[2,3,4,5-^3H] arginine (Feinstein et al., 1994a). […] Assays were carried out for 30 to 40 min and the production of L-[2,3,4,5-^3H] citrulline was linear. The reactions were stopped by addition of 800 μl of ice-cold 20 mM HEPES (pH 5.5) followed by addition of 2 ml of Dowex-50W equilibrated in the same buffer. The samples were then centrifuged and the concentration of L-[^3H]citrulline was determined in the supernatant by liquid scintillation counting.

[2] abbreviates: IFN-γ 200 U/ml, NAC 20 mM 2 h before.
Setting [3] is: IL-1β 200 ng/ml, NAC 20 mM 2 h before.
Setting [4] is: LPS 0.2 μg/ml + IFN-γ 50 U/ml, NAC 20 mM 2 h before.
The mark [5] stands for this setting: LPS 0.2 μg/ml + IL-1β 25 ng/ml, NAC 20 mM 2 h before.
Setting [6] is: LPS 0.2 μg/ml + TNF-α 20 ng/ml, NAC 20 mM 2 h before.
[7] abbreviates: LPS 1.0 μg/ml, NAC 20 mM 2 h before.
The mark [8] stands for this setting: TNF-α 20 ng/ml + IFN-γ 50 U/ml, NAC 20 mM 2 h before.
[9] abbreviates: TNF-α 20 ng/ml + IL-1β 25 ng/ml, NAC 20 mM 2 h before.
[10] abbreviates: TNF-α 100 ng/ml, NAC 20 mM 2 h before.
Setting [11] is: no stimulus (Control), NAC 20 mM.

Entries after “also recorded” stand apart in the source; their conditions may differ.

`CC[C@H](C)C(=O)O[C@H]1C[C@@H](C)C=C2C=C[C@H](C)[C@H](CC[C@@H]3C[C@@H](O)CC(=O)O3)[C@H]21` [Lovastatin]: the IC50 (usually the concentration that inhibits the measured activity by half) with sterol synthesis was 10 nM.
`CC(=O)N[C@@H](CS)C(=O)O` [NAC, N-acetyl cysteine]: the “L-citrulline (NOS activity)” value in test [1] (setting [2]) is listed as 13.2 ± 2.4 pmol/min/mg; in test [1] (setting [3]) it was 12.9 ± 2.1 pmol/min/mg; in test [1] (setting [4]) it was 32.3 ± 4.6 pmol/min/mg; in test [1] (setting [5]), 44.9 ± 6.1 pmol/min/mg; in test [1] (setting [6]) it was 19.7 ± 2.7 pmol/min/mg; in test [1] (setting [7]), 14.2 ± 2.3 pmol/min/mg. In addition, the “L-citrulline (NOS activity)” value in test [1] (setting [8]) is on record as 36.9 ± 3.4 pmol/min/mg; in test [1] (setting [9]) it was 28.2 ± 4.3 pmol/min/mg; in test [1] (setting [10]), 12.9 ± 2.3 pmol/min/mg; in test [1] (setting [11]), 10.2 ± 0.9 pmol/min/mg. In test [1] (LPS 1.0 μg/ml, 24 h), the “LPS-induced NOS activity, L-citrulline formation” value is listed as “formation of L-citrulline was strongly inhibited; also recorded: inhibited LPS-induced NOS activity”. Moreover, the inhibition (usually the relative decrease from the control value, in per cent) at 20000 µM was 90% in test [1] (setting [2]); 43% in test [1] (setting [3]); 83% in test [1] (setting [4]); 78% in test [1] (setting [5]); 91% in test [1] (setting [6]); 91% in test [1] (setting [7]). The inhibition at 20000 µM in test [1] (setting [8]) turned out to be 82%; in test [1] (setting [9]), 85%; in test [1] (setting [10]) it was 61%; in test [1] (setting [11]), 25%.
